Measurements published in patent publication US20100227845A1, “SUBSTITUTED 1,2,4-OXADIAZOLES AND ANALOGS THEREOF AS CB2 RECEPTOR MODULATORS, USEFUL IN THE TREATMENT OF PAIN, RESPIRATORY AND NON-RESPIRATORY DISEASES” (priority 2007, published 2010).
Like-named read-outs stand apart in the source and are kept apart here. Each block holds one compound with its values, some of them ahead of it.

How the values were obtained:
human CB1 = human CB1 (Homo sapiens, UniProt P21554); assay: Cyclic AMP assay (HTRF), CHO cells expressing human CB1; type: cell-based
Chain of human CB1 (P21554 whole entry): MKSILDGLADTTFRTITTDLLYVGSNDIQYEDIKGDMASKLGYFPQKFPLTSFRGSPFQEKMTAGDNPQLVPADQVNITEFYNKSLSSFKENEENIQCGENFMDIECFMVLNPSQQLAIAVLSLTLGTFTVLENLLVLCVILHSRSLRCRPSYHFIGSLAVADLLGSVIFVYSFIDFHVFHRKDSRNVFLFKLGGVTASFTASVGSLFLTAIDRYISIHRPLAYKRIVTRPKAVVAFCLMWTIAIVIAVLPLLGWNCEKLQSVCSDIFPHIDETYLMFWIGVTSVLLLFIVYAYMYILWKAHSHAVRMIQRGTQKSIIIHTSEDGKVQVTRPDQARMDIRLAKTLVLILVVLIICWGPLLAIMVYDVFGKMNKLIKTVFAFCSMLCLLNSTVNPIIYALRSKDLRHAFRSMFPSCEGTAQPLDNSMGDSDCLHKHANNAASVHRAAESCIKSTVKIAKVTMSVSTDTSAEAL
Experimental: (§1) Chinese Hamster Ovary cells (CHO) expressing human CB1 or human CB2 (3.3×10^5 cells/ml) were preincubated for 15 min at room temperature with tested agonist and 3-isobutyl-1-methylxanthine (IBMX; 200 μM) in phosphate buffered saline containing 1 mg/ml BSA (assay buffer) followed by 30 min incubation with forskolin in a total volume of 10 μl. The optimal forskolin concentration for each cell line was established in a separate experiment and adjusted to stimulate 70% of maximal cAMP response. cAMP content was measured using an HTRF assay (CisBio) according to the manufacturer's two step protocol.

human CB2 = human CB2 (Homo sapiens, UniProt P34972); assay: Cyclic AMP assay (HTRF), CHO cells expressing human CB2; type: cell-based
Chain of human CB2 (P34972 whole entry): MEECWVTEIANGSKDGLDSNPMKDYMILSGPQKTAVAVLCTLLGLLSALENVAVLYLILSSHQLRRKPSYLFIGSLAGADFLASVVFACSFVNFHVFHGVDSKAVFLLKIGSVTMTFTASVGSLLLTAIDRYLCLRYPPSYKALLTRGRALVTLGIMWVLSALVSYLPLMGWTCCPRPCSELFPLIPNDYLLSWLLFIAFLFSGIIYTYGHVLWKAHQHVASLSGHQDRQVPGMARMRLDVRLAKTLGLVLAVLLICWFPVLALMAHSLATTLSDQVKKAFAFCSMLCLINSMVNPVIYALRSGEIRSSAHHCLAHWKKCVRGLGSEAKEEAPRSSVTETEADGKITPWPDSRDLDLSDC
Experimental: as §1

[1] = IP of tested agonist, CHO cells expressing human CB1, forskolin-stimulated cAMP, HTRF, read-out: CB1 (HTRF)
[2] = IP of tested agonist, CHO cells expressing human CB2, forskolin-stimulated cAMP, HTRF, read-out: CB2 (HTRF)

Compound: NC(=O)C1CCN(c2ncccc2-c2cc(-c3cccc(F)c3)n[nH]2)CC1 [Example V-5]
EC50 (human CB1; [1]): > 17000 nM | EC50 (human CB2; [2]): 717 nM

Compound: CCCCOc1ncccc1-c1nc(-c2cccc(Cl)c2Cl)no1 [Example I-4]
EC50 (human CB1): 309 nM | EC50 (human CB2): 3 nM

Compound: CCCCOc1ncccc1-c1nc(-c2c(Cl)cccc2Cl)no1 [Example I-5]
EC50 (human CB1): 114 nM | EC50 (human CB2): 4 nM

Compound: CC(C)(C)COc1ncccc1-c1nc(-c2cccc(Cl)c2)no1 [II-5]
EC50 (human CB1; [1]): > 17000 nM | EC50 (human CB2; [2]): 508 nM

Compound: CCCCOc1ncccc1-c1nc(-c2ccc(Cl)cc2)no1 [Example I-3]
EC50 (human CB1): > 17000 nM | EC50 (human CB2): 85 nM

Compound: CS(=O)(=O)C1CCN(c2ncccc2-c2cc(-c3cccc(F)c3)n[nH]2)CC1 [Example V-4]
EC50 (human CB1; [1]): 8750 nM | EC50 (human CB2; [2]): 68 nM

Further lines, results first:

EC50 (human CB1; [1]): > 17000 nM | EC50 (human CB2; [2]): 258 nM
Compound: N#Cc1ccc(-c2ncccc2-c2nc3cc(Cl)c(Cl)cc3[nH]2)cc1 [IV-5]

EC50 (human CB1; [1]): > 17000 nM | EC50 (human CB2; [2]): 900 nM
Compound: CCCCOc1ncccc1-c1nc(-c2ccccc2)c[nH]1 [III-2]

EC50 (human CB1; [1]): > 17000 nM | EC50 (human CB2; [2]): 110 nM
Compound: CCCCOc1ncccc1-c1nc2ccccc2[nH]1 [IV-2]

EC50 (human CB1; [1]): > 17000 nM | EC50 (human CB2; [2]): 272 nM
Compound: COCCOc1ncccc1-c1nc(-c2cccc(Cl)c2)no1 [II-2]

EC50 (human CB1; [1]): > 17000 nM | EC50 (human CB2; [2]): 109 nM
Compound: CCCCOc1ncccc1-c1nc(-c2ccc(C(F)(F)F)cc2)c[nH]1 [III-3]
